From US20250368626A1, “SOLID FORMS OF 2-(3,5-DICHLORO-4-((5-ISOPROPYL-6-OXO-1,6-DIHYDROPYRIDAZIN-3-YL)OXY)PHENYL)-3,5-DIOXO-2,3,4,5-TETRAHYDRO-1,2,4-TRIAZINE-6-CARBONITRILE” (Madrigal Pharmaceuticals, Inc., priority 2018, published 2025)
Converted amounts (≈) assume the structure as drawn.

How the values were obtained:
[1] = Solubility of salts of Compound A in FaSSGF, FaSSIF and water at 37° C.; settings: for Solubility: 37° C.
[2] = Kinetic and thermodynamic solubility of Compound A and the glutaric acid co-crystal in FaSSGF, FaSSIF and water at 37° C. (HPLC); format: physicochemical; settings: for solubility at 1 h / solubility at 24 h / Solubility: 37° C.; for pH: pH of the slurry; for XRPD after slurry: solid form after slurry
Experimental: The kinetic and thermodynamic solubility of the glutaric acid co-crystal was assessed in simulated fasted state gastric and intestinal fluids (FaSSGF and FaSSIF) and also in water. The pH of the system was also measured. The solubility assessment was also performed on Compound A for comparison. […] Samples were collected after 24 hours for equilibrium solubility measurement.

[3] = Dynamic vapor sorption (DVS) of the glutaric acid co-crystal; format: physicochemical
Excerpt: FIG. 83 is a dynamic vapor sorption (DVS) isotherm of the glutaric acid co-crystal of Compound A showing a total mass gain of 1.12% by weight between 2% and 95% relative humidity environments.
No difference in the XRPD pattern was seen after the DVS analysis, the XRPD patterns before and after DVS analysis are shown in FIG. 84.

[4] = Stability of the co-crystal at 75% RH at 40° C. for 1 week; format: physicochemical
[5] = Physical form stability of scaled-up salts at 75% relative humidity for 1 week; format: physicochemical
[6] = Water, value of the 100X dil sample
[7] = solid after solubility test in FaSSGF, by XRPD

## CC(C)c1cc(Oc2c(Cl)cc(-n3nc(C#N)c(=O)[n-]c3=O)cc2Cl)n[nH]c1=O.[Na+] [Na]
[1]; FaSSGF
  Solubility: 0.8 µg/mL
[1]; FaSSIF
  Solubility: 2500 µg/mL
[1]; Water
  Solubility: > 25000 µg/mL
[1]; [6]
  Solubility: 250 µg/mL
[1]; after solubility test in Water
  Resulting form: Clear solution
[1]; [7]
  Resulting form: Dihydrate

## CC(C)c1cc(Oc2c(Cl)cc(-n3nc(C#N)c(=O)[nH]c3=O)cc2Cl)n[nH]c1=O [Form A, 2-(3,5-dichloro-4-((5-isopropyl-6-oxo-1,6-dihydropyridazin-3-yl)oxy)phenyl)-3,5-dioxo-2,3,4,5-tetrahydro-1,2,4-triazine-6-carbonitrile]
[2]; fassgf or other biorelevant, thermodynamic from solid, FaSSGF, Kinetic-1 hour
  solubility at 1 h: 1.1 µg/mL (≈ 2.53 µM)
[2]; pH 1.67, fassgf or other biorelevant, thermodynamic from solid, FaSSGF, Equilibrium-24 hours
  solubility at 24 h: 1.1 µg/mL (≈ 2.53 µM)
[2]; pH 6.44, thermodynamic from solid, FaSSIF, Equilibrium-24 hours
  solubility at 24 h: 552 µg/mL (≈ 1270 µM)
[2]; pH 6.57, thermodynamic from solid, Water, Equilibrium-24 hours
  solubility at 24 h: 193 µg/mL (≈ 443 µM)
[2]; FaSSGF, Equilibrium-24 hours
  pH: 1.67
  XRPD after slurry: Form-A
[2]; FaSSIF, Equilibrium-24 hours
  pH: 6.44
  XRPD after slurry: Form-A
[2]; Water, Equilibrium-24 hours
  pH: 6.57
  XRPD after slurry: Dihydrate
[2]; thermodynamic from solid, FaSSIF, Kinetic-1 hour
  solubility at 1 h: 490 µg/mL (≈ 1120 µM)
[2]; thermodynamic from solid, Water, Kinetic-1 hour
  solubility at 1 h: 25.9 µg/mL (≈ 59.5 µM)

## CC(C)c1cc(Oc2c(Cl)cc(-n3nc(C#N)c(=O)[nH]c3=O)cc2Cl)n[nH]c1=O.O.O [Free form dihydrate]
[1]; FaSSGF
  Solubility: 6.7 µg/mL
[1]; FaSSIF
  Solubility: 2900 µg/mL
[1]; Water
  Solubility: 100 µg/mL

## CC(C)c1cc(Oc2c(Cl)cc(-n3nc(C#N)c(=O)[nH]c3=O)cc2Cl)n[nH]c1=O.O=C(O)CCCC(=O)O [Glutaric acid co-crystal]
[3]; DVS, 2% to 95% RH
  hygroscopicity: not hygroscopic
[3]; between 2% and 95% relative humidity, by weight
  mass gain (DVS): 1.12%
[3]; listed as co-crystal
  XRPD pattern after DVS analysis compared with the starting material: No difference
[3]; listed as glutaric acid co-crystal
  XRPD pattern after DVS analysis compared with the starting material: no change was observed
[2]; FaSSGF, Equilibrium-24 hours
  Solubility: 1 µg/mL
  pH: 1.66
  XRPD after slurry: Dihydrate
[2]; FaSSGF, Kinetic-1 hour
  Solubility: 0.1 µg/mL
[2]; FaSSIF, Equilibrium-24 hours
  Solubility: 478.1 µg/mL
  pH: 6.31
  XRPD after slurry: Dihydrate
[2]; FaSSIF, Kinetic-1 hour
  Solubility: 239.9 µg/mL
[2]; Water, Equilibrium-24 hours
  Solubility: 1.6 µg/mL
  pH: 4.27
  XRPD after slurry: Dihydrate
[2]; Water, Kinetic-1 hour
  Solubility: 0.3 µg/mL
[4]
  stability: stable

## CC(C)c1cc(Oc2c(Cl)cc(-n3nc(C#N)c(=O)[n-]c3=O)cc2Cl)n[nH]c1=O.CC(C)c1cc(Oc2c(Cl)cc(-n3nc(C#N)c(=O)[n-]c3=O)cc2Cl)n[nH]c1=O.[Ca+2] [Hemi Ca]
[5]
  physical form stability compared with starting solids: changes were observed
[1]; FaSSGF
  Solubility: 2.5 µg/mL
[1]; FaSSIF
  Solubility: 800 µg/mL
[1]; Water
  Solubility: 320 µg/mL
[1]; after solubility test in Water
  Resulting form: Dihydrate
[1]; [7]
  Resulting form: Dihydrate

## CC(C)c1cc(Oc2c(Cl)cc(-n3nc(C#N)c(=O)[nH]c3=O)cc2Cl)n[nH]c1=O [Free form Anhydrous]
[1]; FaSSGF
  Solubility: 100 µg/mL
[1]; FaSSIF
  Solubility: 4500 µg/mL
[1]; Water
  Solubility: 200 µg/mL

## CC(C)c1cc(Oc2c(Cl)cc(-n3nc(C#N)c(=O)[n-]c3=O)cc2Cl)n[nH]c1=O.[K+] [K]
[1]; FaSSGF
  Solubility: 1.2 µg/mL
[1]; FaSSIF
  Solubility: 2720 µg/mL
[1]; Water
  Solubility: > 21300 µg/mL
[1]; [6]
  Solubility: 210 µg/mL
[1]; after solubility test in Water
  Resulting form: Clear solution
[1]; [7]
  Resulting form: Dihydrate
